Tests used:
UUO model mice = experiment: UUO-induced renal fibrosis; format: in vivo
Method: The UUO model is currently the most widely used experimental animal model for studying renal tubulointerstitial fibrosis. By ligating a unilateral ureter to cause obstruction of the renal drainage system, leading to acute alterations in renal function and chronic damage to renal structure, it simulates renal interstitial injury caused by ureteral obstruction, which is common in clinical practice. The modeling was performed as follows: • (1) On the first day of the test, mice were given 50 mg/kg sodium pentobarbital anesthesia, after confirming that the mice were under anesthesia and preparing and disinfecting the skin, an incision of about 1 cm at 1 cm left and below of the costovertebral angle was made, the left side of the kidney was fully exposed and the ureter was sought downward along the renal hilum, and the ureter was ligated with a 6-0 nylon thread, and after ligation, the muscle and the skin layers were sutured layer by layer. In the sham group, only the kidney was exposed, but it was not ligated, and sutured directly. The experiments were divided into a sham group (Sham, oral gavage of vehicle), a model control group (vehicle, oral gavage of vehicle), a TJ01-013 10 mg/kg treatment group ([…]), and the vehicle used is 0.5% CMC-Na, administered at a dose of 10 ml/kg, and the frequency of administration was once a day. The drug was administered continuously for 7 days after UUO surgery, at the endpoint of the test, immediately after the mice were put to death, saline was perfused through the heart until the blood in the kidneys was completely drained and the kidneys were transformed from a dark red color to khaki. The operated kidney on the side was collected, the kidney was cut through the short axis of the kidney, and the kidney tissue samples were stored separately according to the requirements of the test. • (2) Renal histopathology
Kidney tissues were fixed with 4% paraformaldehyde for 48 hours, paraffin-embedded, sectioned at a thickness of 4 μm, and Masson stained. Specific experimental procedures were performed as described previously, and after sectioning and scanning the images, the results were analyzed semi-quantitatively using Image J software.
Total RNA was extracted from kidney tissue samples by Tissue RNA Rapid Extraction Kit, and the concentration and purity of RNA were determined by micro-ultraviolet spectrophotometer, and then operated according to the instruction steps of HiScript® II 1st Strand cDNA Synthesis Kit, the cDNA was reversely transcribed with 1 μg of total amount of […], followed by a 15 ul amplification system, with 5 μL of cDNA, 7.5 μL of 2×SYBR Premix Ex Taq™, 0.3 μL of each of forward and reverse primers, and the rest was supplemented with double-distilled water. The conditions of the Bio-Rad reaction were 95° C. for 5 min, denaturation at 95° C. for 10 seconds, annealing/extension at 60° C. for 30 seconds for 40 cycles, and 65° C. for 15 min. The expression of the target gene was calculated by 2-ΔΔCt relative quantification. The Ct value of the target gene was first corrected by the internal reference gene (β-actin), and then compared with the control group to derive the relative expression level. […]

[1] = tested on: cisplatin-induced hearing impairment model in mice; experiment: Cisplatin-induced hearing damage; format: in vivo, C57 mice
Method: Select 8-week-old C57 male mice weighing 22-25 g, according to the previous studies and the previous laboratory exploration, mice were induced to have hearing damage by 4 mg/kg of cisplatin, and a certain amount of cisplatin was dissolved in 0.9% saline of the model control group, and then intraperitoneally injected into the mice for four consecutive days, with the volume of the intraperitoneal injection of 5 ml/kg, and then intraperitoneally injected into the mice for four consecutive days with the volume of 0.9% saline for recovery and alleviation, the injection was prescribed at the same time point every day, and no treatment was done on the 9th day to conduct hearing test or dissect the mice for subsequent experiments. […]
The mice were sacrificed by neck dissection, and the cochlea was removed from mice by neck dissection, and processed under the anatomical microscope to expose the round window and the oval window, the cochlear apex was perforate, and the round window, the oval window and the cochlear apex were perfused with 4% PFA solution, and then the whole cochlea was put into 4% PFA solution for fixation, and was shaken overnight at 4° C. […] Finally, photographs were taken using a fluorescence microscope.

[2] = vs UUO+Vehicle, western blot, FIG. 31

## O=C(O)C[S+]([O-])c1cc(NS(=O)(=O)c2ccc(Br)cc2)c2ccccc2c1O (centres unmarked) [I-1]
UUO model mice; 10 mg/kg TJ01-013, no significant effect vs model control 4.67%, FIG. 29
  Collagen volume fraction %, renal cortex (Masson): 5.58%
UUO model mice; 30 mg/kg TJ01-013, vs model control 4.67%, p<0.05, FIG. 29
  Collagen volume fraction %, renal cortex (Masson): 0.61%
UUO model mice; FIG. 29
  fibrosis in the renal medulla: reducing effect on fibrosis
UUO model mice; FIG. 32
  autophagic vesicles with double-layer or multi-layer membrane structure in the cell (TEM): more autophagic vesicles
UUO model mice; relative to normal and UUO, FIG. 32
  morphology of renal tubular epithelial cells and mitochondria (TEM): in between the former two
UUO model mice; vs UUO+Vehicle, FIG. 30
  Col1a1 gene mRNA expression in renal tissue: certain tendency to inhibit
  Fn1 gene mRNA expression in renal tissue: significantly reduced
UUO model mice; [2]
  collagen type I (collagen I) protein level in kidney: significantly reduced
  fibronectin FN protein level in kidney: significantly reduced
[1]; 4, 8, 16, 24, 32 kHz, 30 mg/kg gavage, 8 days, FIG. 46
  hearing thresholds (ABR): significantly decreased
[1]; apical, middle, base gyrus, FIG. 47
  loss of hair cells (Myo7a, cochlear basement membrane): significantly reduced the loss of hair cells

Source: patent publication US20260027073A1, “USE OF SMALL-MOLECULE COMPOUND HAVING NAPHTHYLAMINE STRUCTURE” (HANGZHOU PHECDAMED CO., LTD., priority 2023, published 2026)
